Experimental data reported in publication PMC10137817, “Efficient Degradation for Raffinose and Stachyose of a β-D-Fructofuranosidase and Its New Function to Improve Gel Properties of Coagulated Fermented-Soymilk” (Gels, 2023).

Molecular target: T1, LcFFase1s (β-D-fructofuranosidase) (Leptothrix cholodnii, UniProt B1Y2A2)
T1 construct: gene Lcho_3297; codon-optimised synthetic gene in pET-28a(+) NdeI/XhoI, E. coli BL21(DE3), Ni-IDA purified (His tag implied, cleavage not mentioned)
T1 sequence (B1Y2A2 1-480): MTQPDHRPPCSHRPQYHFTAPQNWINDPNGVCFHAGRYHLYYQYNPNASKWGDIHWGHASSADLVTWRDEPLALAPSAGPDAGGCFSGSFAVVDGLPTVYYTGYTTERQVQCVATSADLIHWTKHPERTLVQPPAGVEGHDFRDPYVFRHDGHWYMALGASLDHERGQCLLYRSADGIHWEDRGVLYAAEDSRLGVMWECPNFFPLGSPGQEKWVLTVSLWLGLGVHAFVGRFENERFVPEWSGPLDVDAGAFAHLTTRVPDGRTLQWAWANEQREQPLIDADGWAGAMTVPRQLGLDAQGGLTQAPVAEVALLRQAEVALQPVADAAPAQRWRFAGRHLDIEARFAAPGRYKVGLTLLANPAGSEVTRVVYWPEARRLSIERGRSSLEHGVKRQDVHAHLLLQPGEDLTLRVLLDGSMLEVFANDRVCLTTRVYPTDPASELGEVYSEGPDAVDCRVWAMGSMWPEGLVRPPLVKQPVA
Assay: TLC of hydrolysis products
Assay type: biochemical
Conditions: 20 mg/mL substrate, 5 U/mL enzyme, 50 mM sodium hydrogen phosphate-citrate pH 6.5, 40 °C

OC[C@H]1O[C@H](OC[C@H]2O[C@H](O[C@]3(CO)O[C@H](CO)[C@@H](O)[C@@H]3O)[C@H](O)[C@@H](O)[C@@H]2O)[C@H](O)[C@@H](O)[C@H]1O [raffinose]
TLC of hydrolysis products: LcFFase1s entirely hydrolyzed raffinose and stachyose into fructose and melibiose or raffinose

OC[C@H]1O[C@H](OC[C@H]2O[C@H](OC[C@H]3O[C@H](O[C@]4(CO)O[C@H](CO)[C@@H](O)[C@@H]4O)[C@H](O)[C@@H](O)[C@@H]3O)[C@H](O)[C@@H](O)[C@H]2O)[C@H](O)[C@@H](O)[C@H]1O [stachyose]
TLC of hydrolysis products: LcFFase1s entirely hydrolyzed raffinose and stachyose into fructose and melibiose or raffinose
